IC50 and IC90 data for 41 compounds are collected here from ChEMBL document CHEMBL4483862, “Open-source discovery of chemical leads for next-generation chemoprotective antimalarials” (2018).

The IC50 is the concentration at which inhibition is half-maximal. For orientation: IC90 means the concentration at which the effect reaches the 90% level.

This assay has as its system Plasmodium berghei. Description: Luciferase/luciferin-expressing antifolate-resistant parasites were used to infect a culture of HepG2 cells that were pre-incubated with compounds. Infected hepatocytes emit light due to the luciferase reaction. Assay results are presented as the percent inhibition of light emission compared to control. […]. It is filed as functional. Particulars: sporozoite; for IC90: read-out: LUCIFERASE INFECTION ASSAY - IC90.

Setting [1] is: read-out: LUCIFERASE INFECTION ASSAY - IC50.

For the compound `OC(COc1cccc(C(F)(F)F)c1)CN1CCN(c2nc(-c3ccccc3)ns2)CC1` (configuration not stated), the IC90 was more than 7.1 µM. Further, for the setting “PBLUC_HILL_SLOPE 15.4, PBLUC_R_SQUARED 0.391, read-out: LUCIFERASE INFECTION ASSAY - IC50”, the 50% inhibitory concentration (IC50) came out at 6.73 µM.

`COc1ccc(-n2ccnc2SCc2nc(N)c3ccccc3n2)cc1`: the concentration for an effect of 90% (IC90) was more than 10 µM. Under setting [1], the half-maximal inhibitory concentration (IC50) was more than 10 µM.

In the case of `O=C(c1cc(-c2cccc3ccccc23)nc2ccccc12)N1CCN(c2ncccn2)CC1`, the concentration for an effect of 90% (IC90) is more than 10 µM. For the same compound, for the setting “PBLUC_HILL_SLOPE 2.78, PBLUC_R_SQUARED 0.395, read-out: LUCIFERASE INFECTION ASSAY - IC50”, the half-inhibitory concentration (IC50) was 8.3 µM.

As for `O=C(Nc1ccc(Oc2ccc(C(F)(F)F)cn2)c(Cl)c1)C1CC1`, the IC90 turned out to be 4.36 µM. Further, the IC50 (PBLUC_HILL_SLOPE 2.75, PBLUC_R_SQUARED 0.594, read-out: LUCIFERASE INFECTION ASSAY - IC50) turned out to be 1.96 µM.

In the case of `CCCCCc1ccc(NC(=O)NC2=NCCS2)cc1`, the concentration for an effect of 90% (IC90) was more than 11.3 µM. Besides, the IC50 under setting [1] is more than 11.3 µM.

For `O=C1C=CC(=O)N1c1ccc(F)cc1F`, the IC90 came out at 13.8 µM. Also, the concentration for half-maximal inhibition (IC50) (FFLUC_HILL_SLOPE 8.62, FFLUC_R_SQUARED 0.718, PBLUC_HILL_SLOPE 4.26, PBLUC_R_SQUARED 0.573, read-out: LUCIFERASE INFECTION ASSAY - IC50) was 8.24 µM.

`Cc1ccc(C(=O)CN2C(=O)C(=O)N(C)C2=O)cc1C`: the concentration for an effect of 90% (IC90) is more than 10 µM. The IC50 under setting [1] was more than 10 µM.

Take `CN(C)c1ccc(/C=c2\s/c(=C\C#N)n(CC(=O)c3ccccc3)c2=O)cc1`: the IC90 was more than 10 µM. Also, for the setting “FFLUC_HILL_SLOPE 120, FFLUC_R_SQUARED 0.489, HEPG2TOX_HILL_SLOPE 0.599, HEPG2TOX_R_SQUARED 0.179, PBLUC_HILL_SLOPE 1.11, PBLUC_R_SQUARED 0.152, read-out: LUCIFERASE INFECTION ASSAY - IC50”, the IC50 was found to be 5.8 µM.

Turning to `CCCCn1c(N)c(N(CC(C)C)C(=O)c2cc(Br)c(Br)s2)c(=O)[nH]c1=O`, the 90% effect concentration (IC90) amounted to 9.14 µM. Besides, the half-inhibitory concentration (IC50) under setting [1] came to 8.31 µM.

Regarding `CCCCNC(=O)c1c(NC(=O)c2cc(F)ccc2C)nc2ccccn12`, the concentration for an effect of 90% (IC90) is more than 8.96 µM. Also, under “PBLUC_HILL_SLOPE 3.71, PBLUC_R_SQUARED 0.517, read-out: LUCIFERASE INFECTION ASSAY - IC50”, the IC50 is 6.93 µM.

As for `CCC(C)NC(=O)c1c(NC(=O)c2cccc(C(F)(F)F)c2)nc2ccc(C)cn12` (configuration not stated), the IC90 came to 2.99 µM. Moreover, the half-maximal inhibitory concentration (IC50) (PBLUC_HILL_SLOPE 12.7, PBLUC_R_SQUARED 0.269, read-out: LUCIFERASE INFECTION ASSAY - IC50) turned out to be 2.52 µM.

With `Cn1c(NCC2CCCO2)nc2cnc(-c3cccc(Oc4ccccc4)c3)cc21` (configuration not stated), the IC90 was more than 10 µM. Moreover, under setting [1], the IC50 was more than 10 µM.

For `Oc1c(Cl)cc(Cl)cc1-c1ccn[nH]1`, the IC90 was more than 14.4 µM. Under setting [1], the IC50 is more than 14.4 µM.

Take `CC(C)c1cccc(-c2ccc3nnc(-c4ccc5c(c4)NC(=O)CO5)n3c2)c1`: the concentration for an effect of 90% (IC90) was more than 10 µM. Moreover, the IC50 (HEPG2TOX_HILL_SLOPE 7.77, HEPG2TOX_R_SQUARED 0.643, read-out: LUCIFERASE INFECTION ASSAY - IC50) is more than 10 µM.

`COc1cc(C(=O)Nc2ccc(-c3csc(N4CCOCC4)n3)cc2)cc(Cl)c1OC`: the IC90 is more than 10 µM. For the setting “HEPG2TOX_HILL_SLOPE 2.64, HEPG2TOX_R_SQUARED 0.944, PBLUC_HILL_SLOPE 1.81, PBLUC_R_SQUARED 0.542, read-out: LUCIFERASE INFECTION ASSAY - IC50”, the half-inhibitory concentration (IC50) came out at 3.98 µM.

For the compound `Cc1cccc(COc2cccc(C(=O)N3CCC(C(=O)NCc4ccccc4)CC3)c2)c1`, the IC90 is more than 10 µM. The IC50 (HEPG2TOX_HILL_SLOPE 5.74, HEPG2TOX_R_SQUARED 0.455, read-out: LUCIFERASE INFECTION ASSAY - IC50) is more than 10 µM.

As for `CCc1ccc2nc(NC(=O)c3cnccn3)sc2c1`, the IC90 stood at 9.66 µM. The IC50 (HEPG2TOX_HILL_SLOPE 14.5, HEPG2TOX_R_SQUARED 0.913, PBLUC_HILL_SLOPE 21.7, PBLUC_R_SQUARED 0.176, read-out: LUCIFERASE INFECTION ASSAY - IC50) is 8.73 µM.

For `COc1ccc(C)cc1NC(=O)CN(Cc1ccc2c(c1)OCO2)C1CCCC1`, the concentration for an effect of 90% (IC90) is more than 10 µM. For the same compound, under setting [1], the IC50 is more than 10 µM.

In the case of `Cc1ccc(F)c(Nc2ncnc3sccc23)c1`, the IC90 is more than 10 µM. For the same compound, under setting [1], the IC50 is more than 10 µM.

For the compound `Cc1c(C(=O)OC(C)C(=O)N2CCN(Cc3ccccc3)CC2)sc2nc3n(c(=O)c12)CCC3` (configuration not stated), the IC90 is more than 10 µM. Besides, the half-maximal inhibitory concentration (IC50) (PBLUC_HILL_SLOPE 12.6, PBLUC_R_SQUARED 0.201, read-out: LUCIFERASE INFECTION ASSAY - IC50) stood at 9 µM.

For `COCOc1ccc(-c2cc(-c3ccc(N)nc3)cnc2N)cc1`, the concentration for an effect of 90% (IC90) came to 3.91 µM. Also, under “PBLUC_HILL_SLOPE 17.1, PBLUC_R_SQUARED 0.834, read-out: LUCIFERASE INFECTION ASSAY - IC50”, the IC50 was 3.44 µM.

For the compound `Cc1ccc(NC(=O)/C=C/c2c(C)nn(CC(C)C)c2Cl)cc1`, the IC90 is more than 10 µM. Besides, the 50% inhibitory concentration (IC50) (HEPG2TOX_HILL_SLOPE 7.42, HEPG2TOX_R_SQUARED 0.403, read-out: LUCIFERASE INFECTION ASSAY - IC50) was more than 10 µM.

Regarding `CCC(CC)c1nnc(NC(=O)/C=C/c2cn(-c3ccccc3)nc2-c2ccc(F)cc2)s1`, the IC90 was more than 10 µM. Under setting [1], the IC50 was more than 10 µM.

Regarding `Clc1ccc2c(NC3CCN(Cc4ccccc4)CC3)ccnc2c1`, the 90% effect concentration (IC90) was 8.05 µM. The concentration for half-maximal inhibition (IC50) (HEPG2TOX_HILL_SLOPE 11.4, HEPG2TOX_R_SQUARED 0.805, PBLUC_HILL_SLOPE 13.2, 4.09, PBLUC_R_SQUARED 0.263, 0.797, read-out: LUCIFERASE INFECTION ASSAY - IC50) turned out to be 5.96 µM.

For `CC(C)NC(=O)c1c(NC(=O)c2cccc(Cl)c2Cl)nc2ccccn12`, the IC90 was more than 8.43 µM. For the same compound, the IC50 (PBLUC_HILL_SLOPE 29.4, PBLUC_R_SQUARED 0.349, read-out: LUCIFERASE INFECTION ASSAY - IC50) came out at 7.83 µM.

As to `COc1cc(C(=O)OCc2c(C)cc(C(C)(C)C)cc2C)cc(OC)c1OC`, the IC90 was more than 10 µM. Also, the IC50 under setting [1] is more than 10 µM.

Regarding `COc1cc2c(cc1OC)CN(c1nc(CN3CCOCC3)nc3sc4c(c13)CCC(C)C4)CC2` (configuration not stated), the IC90 stood at 3.91 µM. Also, the concentration for half-maximal inhibition (IC50) (PBLUC_HILL_SLOPE 15.9, PBLUC_R_SQUARED 0.656, read-out: LUCIFERASE INFECTION ASSAY - IC50) was found to be 3.41 µM.

For `c1nc(Nc2ccc(C34CC5CC(CC(C5)C3)C4)cc2)c2ccsc2n1`, the concentration for an effect of 90% (IC90) stood at 0.884 µM. For the same compound, the IC50 (PBLUC_HILL_SLOPE 24.2, PBLUC_R_SQUARED 0.39, read-out: LUCIFERASE INFECTION ASSAY - IC50) was found to be 0.808 µM.

As for `Cc1cc(O)c(C(C)C)cc1NC1=NC(=O)S/C1=C\c1cc(Cl)ccc1OCC(=O)Nc1ccc(Cl)cc1`, the IC90 worked out at 3.24 µM. Also, the IC50 under setting [1] stood at 2.98 µM.

Take `O=C(COc1ccc(Cl)cc1Br)c1ccc[nH]1`: the 90% effect concentration (IC90) was more than 10 µM. In addition, the IC50 (FFLUC_HILL_SLOPE 12.1, FFLUC_R_SQUARED 0.341, HEPG2TOX_HILL_SLOPE 8.8, HEPG2TOX_R_SQUARED 0.689, read-out: LUCIFERASE INFECTION ASSAY - IC50) was more than 10 µM.

As for `CN(C)C(=O)Oc1ccc2c(-c3ccccc3)cc(=O)oc2c1`, the concentration for an effect of 90% (IC90) was more than 10.7 µM. Further, where the note is “PBLUC_HILL_SLOPE 7.62, PBLUC_R_SQUARED 0.0613, read-out: LUCIFERASE INFECTION ASSAY - IC50”, the 50% inhibitory concentration (IC50) is more than 10.7 µM.

As for `CC(Oc1ccccc1[N+](=O)[O-])C(=O)N(c1nccs1)C1CCCCC1` (configuration not stated), the IC90 was more than 10 µM. Besides, the half-inhibitory concentration (IC50) under setting [1] was more than 10 µM.

As to `COc1cc(C(=O)Nc2nc3ccccc3[nH]2)ccc1C`, the concentration for an effect of 90% (IC90) was found to be 8.73 µM. The IC50 under setting [1] is 5.35 µM.

Turning to `COC(=O)c1cnc(Sc2n[nH]c(=O)n2-c2cccc(C(F)(F)F)c2)c([N+](=O)[O-])c1`, the 90% effect concentration (IC90) is more than 7.48 µM. The IC50 under setting [1] was more than 7.48 µM.

Regarding `CCOC(=O)/C(=N\Nc1sc(C(=O)OCC)c(C)c1C(=O)OCC)C(=O)c1ccccc1`, the IC90 worked out at 9.2 µM. Moreover, under setting [1], the IC50 was determined as 7.51 µM.

For `Cc1cc(C)n(-c2nc(C)c(Br)c(N(C)C)n2)n1`, the IC90 is more than 10.6 µM. Under setting [1], the IC50 is more than 10.6 µM.

Take `O=[N+]([O-])c1cccc(-c2nnc3c4ccccc4nc(C(F)(F)F)n23)c1`: the IC90 was more than 9.19 µM. The half-inhibitory concentration (IC50) (HEPG2TOX_HILL_SLOPE 7.76, HEPG2TOX_R_SQUARED 0.363, PBLUC_HILL_SLOPE 1.91, PBLUC_R_SQUARED 0.781, read-out: LUCIFERASE INFECTION ASSAY - IC50) was 4.42 µM.

For the compound `COc1ccc(-c2cc3[nH]c(NCc4ccccc4)nc3cn2)cc1OC`, the IC90 was 5.34 µM. Moreover, the 50% inhibitory concentration (IC50) (HEPG2TOX_HILL_SLOPE 12.7, HEPG2TOX_R_SQUARED 0.819, PBLUC_HILL_SLOPE 80.4, PBLUC_R_SQUARED 0.69, read-out: LUCIFERASE INFECTION ASSAY - IC50) came out at 5.2 µM.

As to `Cc1ccc(-c2nn(-c3ccccc3)cc2/C=C(/C(=O)c2ccccc2)c2nc3ccccc3s2)o1`, the concentration for an effect of 90% (IC90) was more than 10 µM. Besides, for the setting “FFLUC_HILL_SLOPE 2.3, FFLUC_R_SQUARED 0.652, PBLUC_HILL_SLOPE 2.05, PBLUC_R_SQUARED 0.091, read-out: LUCIFERASE INFECTION ASSAY - IC50”, the IC50 was more than 10 µM.

As to `CCCCNC(=O)C1(C)CCCCN1C(=O)c1ccc2c(c1)C(C)(C)CCC2(C)C` (configuration not stated), the concentration for an effect of 90% (IC90) was more than 8 µM. The IC50 (PBLUC_HILL_SLOPE 3, PBLUC_R_SQUARED 0.424, read-out: LUCIFERASE INFECTION ASSAY - IC50) was found to be 7.41 µM.

As for `CCc1ccc(CN(Cc2cccnc2)C(=O)c2ccc3ccccc3n2)cc1`, the IC90 is 4.26 µM. For the setting “PBLUC_HILL_SLOPE 15.3, PBLUC_R_SQUARED 0.276, read-out: LUCIFERASE INFECTION ASSAY - IC50”, the IC50 worked out at 3.69 µM.
